How the values were obtained:
IL1β = experiment: Hypothalamic gene expression by RT-qPCR after high-fat diet; type: in vivo, mice; conditions: hypothalamus, 0.3 mg/kg oral for 5 days
Method: (§1) Male mice were raised for at least one month on a high-fat diet (60% kcal fat) and were orally administered with YHIEPV (0.3 mg/kg) for 5 days, and hypothalamic and brain samples were then collected. The expression levels of genes associated with leptin resistance (SOCS-3, PTP1B, and TCPTP) and inflammatory cytokines (IL-6, IL1β, TNFα) in the hypothalamus were measured by RT-qPCR. Active Rap1 in the brain was quantified by using the Active Rap1 Pull-down assay kit and the Detection Kit according to the manufacturer's protocol (N=4). […] The data were analyzed by t-test. […] The error bars represent standard error (n=4).

IL-6 = experiment: as above; type: in vivo, mice; conditions: hypothalamus, 0.3 mg/kg oral for 5 days
Method: as §1

TCPTP = experiment: as above; type: in vivo, mice; conditions: hypothalamus, 0.3 mg/kg oral for 5 days
Method: as §1

PTP1B = experiment: as above; type: in vivo, mice; conditions: hypothalamus, 0.3 mg/kg oral for 5 days
Method: as §1

TNFα = experiment: as above; type: in vivo, mice; conditions: hypothalamus, 0.3 mg/kg oral for 5 days
Method: as §1

SOCS-3 = experiment: as above; type: in vivo, mice; conditions: hypothalamus, 0.3 mg/kg oral for 5 days
Method: as §1

[1] = previously discovered, PTL 2; cited from earlier work
[2] = Fat mass (peritesticular and mesenteric fat) after five-week oral administration; type: in vivo, mice; conditions: after five-week oral administration 0.3 mg/kg
Method: (§2) After the five-week oral administration of YHIEPV in Test Example 4, the blood was collected under anesthesia. Subsequently, the blood was centrifuged, and the serum was collected. The leptin level in the serum was determined by ELISA (according to the manufacturer's protocol) (N=10). The fat mass (peritesticular fat and mesenteric fat) was also measured at the same time as blood sampling (N=9). […] The data were analyzed by t-test. […] The error bars represent standard error (n=9-10).

leptin = experiment: Serum leptin level by ELISA after five-week oral administration; type: in vivo, mice; conditions: after five-week oral administration 0.3 mg/kg
Method: as §2

[3] = system: phosphorylated STAT3 signal; experiment: Intracellular leptin sensitivity in hypothalamic organ culture (phosphorylated STAT3 immunostaining); type: cell-based; conditions: peptide 100 μM preincubation 24 hours, leptin 30 nM 1 hour
Method: Subsequently, formalin fixation was performed and the phosphorylated STAT3 signal was detected by an immunostaining chemistry method (N=6-7). […] The data were analyzed by one-way analysis of variance, followed by multiple comparisons by Tukey's test. […] The error bars represent standard error (n=6-8).

δ opioid receptor = molecular target: T1, δ opioid receptor (Mus musculus, UniProt P32300); experiment: Impact of naltrindole on high-fat diet intake suppression induced by oral YHIEPV; type: in vivo, mice; conditions: YHIEPV oral plus naltrindole intraperitoneal; food intake 4 hours later
T1 construct: from tissue; host or cells: living male mice (whole animal)
T1 sequence (P32300 whole entry): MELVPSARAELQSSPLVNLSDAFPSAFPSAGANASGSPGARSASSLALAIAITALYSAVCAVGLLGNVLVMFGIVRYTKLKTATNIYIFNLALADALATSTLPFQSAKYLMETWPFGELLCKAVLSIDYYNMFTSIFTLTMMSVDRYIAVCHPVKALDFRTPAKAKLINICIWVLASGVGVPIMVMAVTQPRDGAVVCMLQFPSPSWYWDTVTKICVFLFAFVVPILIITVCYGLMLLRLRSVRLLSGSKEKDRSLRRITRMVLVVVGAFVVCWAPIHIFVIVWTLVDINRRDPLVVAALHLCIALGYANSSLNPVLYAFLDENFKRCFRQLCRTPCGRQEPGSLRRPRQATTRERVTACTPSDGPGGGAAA
Method: (§3) Male mice raised on a high-fat diet (60% kcal fat) were administered under overnight fasting conditions with YHIEPV (oral administration) and naltrindole (intraperitoneal administration), which is a δ opioid receptor inhibitor, or HS024 (intracerebroventricular administration), which is an MC4 receptor inhibitor, and the amount of food intake was measured 4 hours later (N=13-15). The δ opioid receptor and MC4 receptor are receptors involved in feeding behavior. […] The data were analyzed by one-way analysis of variance, followed by multiple comparisons by Tukey's test. […] The error bars represent standard error (n=13-15).

[4] = Long-term oral administration: body weight gain caused by high-fat diet; type: in vivo; conditions: 0.3 mg/kg oral once a day, male mice on high-fat diet
Method: Male mice raised for at least one month on a high-fat diet (60% kcal fat) were orally administered with YHIEPV (0.3 mg/kg) once a day. The body weight and the amount of food intake were measured daily, and the amount of food intake was calculated as cumulative food intake (N=10). […] The data were analyzed by two-way analysis of variance, followed by multiple comparisons by the Bonferroni test. […] The error bars represent standard error (n=10).

[5] = system: phosphorylated STAT3 signal; experiment: Leptin resistance induced by Forskolin (Rap1 pathway stimulation) in hypothalamic organ culture; type: cell-based; conditions: Forskolin 20 μM and YHIEPV 100 μM 6 hours, leptin 60 nM 1 hour
Method: A hypothalamic organ culture system was preincubated with Forskolin (20 μM) and YHIEPV (100 μM) for 6 hours, followed by leptin stimulation (60 nM) for 1 hour. Subsequently, formalin fixation was performed and the phosphorylated STAT3 signal was detected by an immunostaining chemistry method (N=6-7). Forskolin is known to induce leptin resistance via the Rap1 activation pathway. […] The data were analyzed by one-way analysis of variance, followed by multiple comparisons by Tukey's test. […] The error bars represent standard error (n=5-9).

MC4 receptor = molecular target: T2, MC4 receptor (Mus musculus, UniProt P56450); experiment: Impact of HS024 on high-fat diet intake suppression induced by oral YHIEPV; type: in vivo, mice; conditions: YHIEPV oral plus HS024 intracerebroventricular; food intake 4 hours later
T2 construct: from tissue; host or cells: living male mice (whole animal)
T2 sequence (P56450 whole entry): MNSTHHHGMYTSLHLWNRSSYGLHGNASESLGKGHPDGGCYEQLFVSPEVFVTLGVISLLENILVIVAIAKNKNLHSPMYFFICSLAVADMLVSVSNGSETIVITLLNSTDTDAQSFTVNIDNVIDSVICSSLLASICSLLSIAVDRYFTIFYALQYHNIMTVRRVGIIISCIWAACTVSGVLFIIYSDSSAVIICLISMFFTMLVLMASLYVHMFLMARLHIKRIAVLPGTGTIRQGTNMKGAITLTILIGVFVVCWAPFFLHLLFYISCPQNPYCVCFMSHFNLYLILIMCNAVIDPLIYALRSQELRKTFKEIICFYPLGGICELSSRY
Method: as §3

[6] = Anti-obesity effect of intracerebroventricularly administered leptin with oral YHIEPV; type: in vivo, mice; conditions: YHIEPV 0.3 mg/kg oral, leptin 0.5 μg intracerebroventricular
Method: A guide cannula was placed in the lateral ventricle of male mice raised on a high-fat diet (60% kcal fat) for at least one month, and a recovery period of at least 1 week was then provided. Subsequently, the body weight change and the amount of food intake were measured after the addition of YHIEPV (0.3 mg/kg, oral administration) and leptin (0.5 μg, intracerebroventricular administration) (N=10-12). […] The data were analyzed by two-way analysis of variance, followed by multiple comparisons by Tukey's test. […] The error bars represent standard error (n=10-12).

[7] = High-fat diet intake after oral administration under overnight fasting; type: in vivo; conditions: male mice raised on high-fat diet (60% kcal fat)
Method: Male mice raised on a high-fat diet (60% kcal fat) were orally administered with the digested product under overnight fasting conditions, and the amount of food intake was measured over time (N=14-15). […] The data were analyzed by two-way analysis of variance, followed by multiple comparisons by Tukey's test. […] The error bars represent standard error (n=14-15).
The data were analyzed by two-way analysis of variance, followed by multiple comparisons by Tukey's test. […] The error bars represent standard error (n=9).
Male mice raised on a high-fat diet (60% kcal fat) were orally administered with Rubisco-derived peptide YHIEPV under overnight fasting conditions, and the amount of food intake was measured over time (N=11). […] The data were analyzed by two-way analysis of variance, followed by multiple comparisons by the Bonferroni test. […] The error bars represent standard error (n=11).
The data were analyzed by two-way analysis of variance, followed by multiple comparisons by Tukey's test. […] The error bars represent standard error (n=7-8).
The data were analyzed by two-way analysis of variance, followed by multiple comparisons by Tukey's test. In FIG. 10, the error bars represent standard error (n=5-7).

Active Rap1 = Active Rap1 pull-down assay in brain; type: in vivo, mice; conditions: 0.3 mg/kg oral for 5 days
Method: as §1

Substance	expression level of IL1β (IL1β)	expression level of IL-6 (IL-6)	expression level of TCPTP (TCPTP)	expression level of PTP1B (PTP1B)	expression level of TNFα (TNFα)	expression level of SOCS-3 (SOCS-3)	anxiolytic effect [1]	fat mass [2]	blood leptin level (leptin)	intracellular leptin sensitivity in the hypothalamus [3]	effect of suppressing high-fat diet intake in presence of δ opioid receptor inhibitor (δ opioid receptor)	body weight gain caused by a high-fat diet [4]	leptin resistance induced by Forskolin [5]	effect of suppressing high-fat diet intake in presence of MC4 receptor inhibitor (MC4 receptor)	anti-obesity effect of intracerebroventricularly administered leptin (body weight change, food intake) [6]	high-fat diet intake (amount of food intake over time) [7]	expression level of active Rap1 (Active Rap1)
YHIEPV (listed as Spinacia oleracea)	significantly decreased	decreasing trend	significantly decreased	decreasing trend	decreasing trend	significantly decreased	anxiolytic effect	trend toward decrease	decreased	enhanced	inhibited	suppressed body weight gain	improved	inhibited	enhanced	suppressed high-fat diet intake	significantly decreased
YKLTY (listed as Spinacia oleracea) [Rubisco-derived peptide, synthesized by solid-phase Fmoc method; contained in green leaf Rubisco digested product B]										enhanced						suppressed high-fat diet intake	
